According to patent publication US12239711B2, “Cereblon ligands and bifunctional compounds comprising the same” (Arvinas Operations, Inc., priority 2014, dated 2025):

Assays:
[1] = test system: estrogen responsive element/promoter/luciferase reporter gene; assay: ERE Luciferase Assay in T47D-KBluc cells; assay type: cell-based, human; conditions: Homo sapiens, 24 hours, luciferase activity, read-out: Target Engagement IC50
Experimental: 1. ERE Luciferase Assay for Compounds in Table 5.
T47D-KBluc cells (ATCC® #CRL_2865, T47D human breast cancer cells stably transfected with estrogen responsive element/promoter/luciferase reporter gene) were seeded into 96-well white opaque plates in RPMI growth medium supplemented with 10% fetal bovine serum (FBS) and allowed to adhere overnight in a 37° C. humidified incubator. The following day, cells were treated with PROTACs in a 12-point concentration curve (top final concentration of 300 nM with subsequent concentrations being 3-fold less with 2 pM being the lowest concentration in the assay). Each PROTAC was tested independently in two experiments on 96-well plates. After 24 hours, media was removed and lysis buffer was added to the wells. Following lysis, Bright-Glo™ Luciferase Assay Substrate (Promega, Madison WI) was added and the luciferase activity was measured using a Cytation 3 plate reader (BioTek™, Winooski, VT). Each compound was assayed in duplicate and the activity was calculated as IC50 using GraphPad Prism software (San Diego, CA).

[2] = biological target: T1, Estrogen Receptor-Alpha (ERα) (Homo sapiens, UniProt P03372); assay: Estrogen Receptor-Alpha (ERα) degradation assay in MCF-7 cells (western blot / In-Cell Western); assay type: cell-based; conditions: for Dmax: MCF7, read-out: ER Dmax; for DC50: read-out: ER DC50
T1 construct: endogenous in cells; host or cells: MCF-7 (MCF7) cells
T1 sequence (P03372 1-595): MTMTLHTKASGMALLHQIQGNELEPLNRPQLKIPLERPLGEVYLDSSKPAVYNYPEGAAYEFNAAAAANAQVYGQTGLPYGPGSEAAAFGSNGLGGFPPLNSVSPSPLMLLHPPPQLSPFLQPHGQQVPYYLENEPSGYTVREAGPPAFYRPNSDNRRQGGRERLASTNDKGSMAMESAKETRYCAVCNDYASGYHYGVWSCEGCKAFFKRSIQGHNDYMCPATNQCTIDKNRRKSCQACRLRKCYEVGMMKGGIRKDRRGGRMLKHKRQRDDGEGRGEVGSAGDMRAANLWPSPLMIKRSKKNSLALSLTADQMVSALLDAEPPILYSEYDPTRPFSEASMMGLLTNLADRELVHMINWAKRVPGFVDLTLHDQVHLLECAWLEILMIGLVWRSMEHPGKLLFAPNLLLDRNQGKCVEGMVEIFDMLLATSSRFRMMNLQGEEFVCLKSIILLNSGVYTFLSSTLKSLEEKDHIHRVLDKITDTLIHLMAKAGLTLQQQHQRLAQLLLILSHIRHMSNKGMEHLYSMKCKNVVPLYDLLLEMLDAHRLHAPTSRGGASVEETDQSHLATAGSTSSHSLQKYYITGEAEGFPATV
Experimental: 2. Estrogen Receptor-Alpha (ERα) Degradation Assay in MCF-7 Cells Using Western Blot Method for Table 5.
The exemplary novel ERα degraders were assessed for their activity in degrading ERα in MCF-7 cells via western blot. The assay was carried out in the presence of 10% FBS or high percentage of human or mouse serum. Protocols of the western blot assay are described below.
MCF7 cells were grown in DMEM/F12 with 10% FBS and seeded at 24,000 cells per well in 100 μl into 96-well clear tissue culture plates. The following day, the cells were treated with PROTACs in a […] concentration curve with 100 nM being the top concentration and serial dilutions to make the other concentrations (30 nM, 10 nM, 3 nM, 1 nM, and 0.3 nM). At all concentrations, 0.01% DMSO is the final concentration in the well. The following day, the plates are aspirated, washed with 50 μl of cold PBS. The cells are lysed with 50 μl/well 4° C. Cell Lysis Buffer (Catalog #9803; Cell Signaling Technology, Danvers, MA) (20 mM Tris-HCL (pH 7.5), 150 mM NaCl, 1 mM Na2EDTA, 1 mM EGTA, 1% Triton, 2.5 mM sodium pyrophosphate, 1 mM B-glycerophosphate, 1 mM sodium vanadate, 1 ug/ml leupeptin). Lysates were clarified at 16,000×g for 10 minutes, and 2 μg of protein was subjected to SDS-PAGE analysis and followed by immunoblotting according to standard protocols. The antibodies used were ERα (Cell Signaling Technologies Catalog #8644), and Tubulin (Sigma Catalog #T9026; St. Louis, MO). Detection reagents were Clarity Western ECL substrate (Bio-Rad Catalog #170-5060; Hercules, CA).
Alternatively, MCF7 cells were grown in DMEM/F12 with 10% FBS and seeded at 24,000 cells per well in 500 μl in 24-well clear tissue culture plates. The following day, the cells were treated with PROTACs in a 5-point concentration curve (100 nM, 33 nM, 11 nM, 3.7 nM, and 1.2 nM) in the presence of 0.01% DMSO. After 72 hours, the wells are aspirated and washed with 500 μl of PBS. The cells are lysed with 100 μl/well 4° C. Cell Lysis Buffer (Catalog #9803; Cell Signaling Technology, Danvers, MA) (20 mM Tris-HCL (pH 7.5), 150 mM NaCl, 1 mM Na2EDTA, 1 mM EGTA, 1% Triton, 2.5 mM sodium pyrophosphate, 1 mM B-glycerophosphate, 1 mM sodium vanadate, 1 ug/ml leupeptin). Lysates were clarified at 16,000×g for 10 minutes, and 2 μg of protein was subjected to SDS-PAGE analysis and followed by immunoblotting according to standard protocols. The antibodies used were ERα (Cell Signaling Technologies Catalog #8644), and Tubulin (Sigma Catalog #T9026; St. Louis, MO). Detection reagents were Clarity Western ECL substrate (Bio-Rad Catalog #170-5060; Hercules, CA).
3. Estrogen Receptor-Alpha (ERα) Degradation Assay Using In-Cell Western™ Assay for Table 5.
Degradation of ERα by claimed compounds were determined in MCF7 cells using an In-Cell Western™ assay. Briefly, MCF7 cells were plated in 96-well plates (2000 cells per well in 100 μl media) and incubated at 37° C. under an atmosphere of 5% CO2 in a humidified incubator overnight. One-hundred (100) μl of media containing test compound (at 2× concentration) was added to the appropriate wells to provide 11 serially decreasing concentrations (top final concentration, 1 μM then 3-fold less for the next 10 concentrations); a vehicle control (DMSO) was also added for each compound. For each experiment, all compounds were assayed in duplicate plates. Cells were then incubated for 3 or 5 days in the above-mentioned environment. The assay was terminated by removal of media, a single wash with ice-cold PBS and the addition of 50 μl paraformaldehyde (PFA: 4% in PBS). After 15 minutes in PFA at room temperature, the cells were permeabilized in Tris-phosphate-buffered saline with Tween (0.1%) (TBST) supplemented with Triton X-100 (0.5%) for 15 minutes. Cells were then blocked in BSA (TBST with BSA, 3%) for one hour. […]

| Compound | IC50 [1] [nM] | Dmax [2] [%] | DC50 [2] [nM] |
| --- | --- | --- | --- |
| O=C1CCC(N2Cc3cc(N4CCN(CCC5CCN(c6ccc([C@@H]7c8ccc(O)cc8CC[C@@H]7c7ccccc7)cc6)CC5)CC4)cc(OC(F)F)c3C2=O)C(=O)N1 (stereo partly drawn) [compound 22, 3-[7-(difluoromethoxy)-5-[4-[2-[1-[4-[(1R,2S)-6-hydroxy-2-phenyl-tetralin-1-yl]phenyl]-4-piperidyl]ethyl]piperazin-1-yl]-1-oxo-isoindolin-2-yl]piperidine-2,6-dione] | 4.4 | ≥ 75 | 1 to 10 |
| O=C1CCC(N2Cc3cc(N4CCN(CCC5CC(Oc6ccc([C@@H]7c8ccc(O)cc8CC[C@@H]7c7ccccc7)cc6)C5)CC4)cc(OC(F)F)c3C2=O)C(=O)N1 (stereo partly drawn) [compound 23, 3-[7-(difluoromethoxy)-5-[4-[2-[3-[4-[(1R,2S)-6-hydroxy-2-phenyl-tetralin-1-yl]phenoxy]cyclobutyl]ethyl]piperazin-1-yl]-1-oxo-isoindolin-2-yl]piperidine-2,6-dione] | 1.8 | 50 to 75 | 1 to 10 |
| COc1cc(N2CCN(CCC3CCN(c4ccc([C@@H]5c6ccc(O)cc6CC[C@@H]5c5ccccc5)cc4F)CC3)CC2)cc2c1C(=O)N(C1CCC(=O)NC1=O)C2 (stereo partly drawn) [compound 24, 3-[5-[4-[2-[1-[2-fluoro-4-[(1R,2S)-6-hydroxy-2-phenyl-tetralin-1-yl]phenyl]-4-piperidyl]ethyl]piperazin-1-yl]-7-methoxy-1-oxo-isoindolin-2-yl]piperidine-2,6-dione] | 0.7 | ≥ 75 | 1 to 10 |
| O=C1CCC(n2nc3cc(N4CCN(CCCCCOc5ccc([C@@H]6c7ccc(O)cc7CC[C@@H]6c6ccccc6)cc5)CC4)ccn3c2=O)C(=O)N1 (stereo partly drawn) [compound 25, 3-{7-[4-(5-{4-[(1R,2S)-6-hydroxy-2-phenyl-1,2,3,4-tetrahydronaphthalen-1-yl]phenoxy}pentyl)piperazin-1-yl]-3-oxo-2H,3H-[1,2,4]triazolo[4,3-a]pyridin-2-yl}piperidine-2,6-dione] | 0.5 | < 50 |  |
| COc1cc(N2CCN(CC(=O)C3CC(Oc4ccc([C@@H]5c6ccc(O)cc6CC[C@@H]5c5ccccc5)cc4)C3)CC2)cc2c1C(=O)N(C1CCC(=O)NC1=O)C2 (stereo partly drawn) [compound 26, 3-[5-[4-[2-[3-[4-[(1R,2S)-6-hydroxy-2-phenyl-tetralin-1-yl]phenoxy]cyclobutyl]-2-oxo-ethyl]piperazin-1-yl]-7-methoxy-1-oxo-isoindolin-2-yl]piperidine-2,6-dione] | 0.7 | ≥ 75 | < 1 |
| O=C1CCC(N2Cc3cc(N4CCN(CCC5(O)CC(Oc6ccc([C@@H]7c8ccc(O)cc8CC[C@@H]7c7ccccc7)cc6)C5)CC4)cc(OC(F)F)c3C2=O)C(=O)N1 (stereo partly drawn) [compound 27, 3-[7-(difluoromethoxy)-5-[4-[2-[1-hydroxy-3-[4-[(1R,2S)-6-hydroxy-2-phenyl-tetralin-1-yl]phenoxy]cyclobutyl]ethyl]piperazin-1-yl]-1-oxo-isoindolin-2-yl]piperidine-2,6-dione] | 0.5 | 50 to 75 | < 1 |
| COc1cc(N2CCN(CCC3(O)CC(Oc4ccc([C@@H]5c6ccc(O)cc6CC[C@@H]5c5ccccc5)cc4)C3)CC2)cc2c1C(=O)N(C1CCC(=O)NC1=O)C2 (stereo partly drawn) [compound 28, 3-[5-[4-[2-[1-hydroxy-3-[4-[(1R,2S)-6-hydroxy-2-phenyl-tetralin-1-yl]phenoxy]cyclobutyl]ethyl]piperazin-1-yl]-7-methoxy-1-oxo-isoindolin-2-yl]piperidine-2,6-dione] | 0.3 | ≥ 75 | < 1 |
| O=C1CCC(N2C(=O)c3ccc(N4CCN(CC5CCN(c6ccc([C@@H]7c8ccc(O)cc8CC[C@@H]7c7ccccc7)cc6)CC5)CC4)cc3C23CC3)C(=O)N1 (stereo partly drawn) [compound 29, 3-(6′-{4-[(1-{4-[(1R,2S)-6-hydroxy-2-phenyl-1,2,3,4-tetrahydronaphthalen-1-yl]phenyl}piperidin-4-yl)methyl]piperazin-1-yl}-3′-oxo-2′,3′-dihydrospiro[cyclopropane-1,1′-isoindole]-2′-yl)piperidine-2,6-dione] | 2.4 | < 50 |  |
| O=C1CCC(N2C(=O)c3ccc(N4CCN(CC5CCN(c6ccc([C@@H]7c8ccc(O)cc8CC[C@@H]7c7ccccc7)cc6F)CC5)CC4)cc3C23CC3)C(=O)N1 (stereo partly drawn) [compound 30, 3-[6′-[4-[[1-[2-fluoro-4-[(1R,2S)-6-hydroxy-2-phenyl-tetralin-1-yl]phenyl]-4-piperidyl]methyl]piperazin-1-yl]-3′-oxo-spiro[cyclopropane-1,1′-isoindoline]-2′-yl]piperidine-2,6-dione] | 2.1 | 50 to 75 | 1 to 10 |
